Where two headings read alike, the source gives them in different places.
Target: MhuD (Mycobacterium tuberculosis, UniProt P9WKH3)
Experiment: biochemical
Assay type: binding

Sequence of MhuD (P9WKH3 whole entry): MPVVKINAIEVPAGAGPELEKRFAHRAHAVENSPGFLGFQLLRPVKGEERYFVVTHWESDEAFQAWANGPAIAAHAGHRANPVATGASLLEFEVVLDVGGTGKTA

Row | SMILES | Kd [nM] | Kd (read-out: αBV Kd) [nM]
1 | C=CC1=C(C)C2=Cc3c(C=C)c(C)c4[n]3[Fe][n]3c(c(C)c(CCC(=O)O)c3=CC3=NC(=C4)C(C)=C3CCC(=O)O)=CC1=N2 [heme] | 6 ± 2.9 | 
2 | C=CC1=C(C)/C(=C/c2[nH]c(/C=C3N=C(/C=C4\NC(=O)C(C)=C4C=C)C(C)=C\3CCC(=O)O)c(CCC(=O)O)c2C)NC1=O [αBV, biliverdin IXα] |  | 36.4 ± 2.1
